From US10703748B2, “Diazanaphthalen-3-yl carboxamides and preparation and use thereof” (Samumed, LLC, priority 2017, dated 2020) come the findings set out here.

For one experiment, the target named is DYRK1A kinase (Homo sapiens, UniProt Q13627). In words: DYRK1A kinase activity (Ser/Thr 18 peptide Z-lyte FRET assay).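 Note: kinase activity read as coumarin/fluorescein emission ratio after development step, with unphosphorylated and phosphorylated peptide forms setting 0% and 100% controls, values from dose-response curves.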 As to conditions: recombinant DYRK1A, 30 μM ATP, one hour at room temperature. In kind it is biochemical.
The next experiment deals with GSK3β kinase (Homo sapiens, UniProt P49841). In words: GSK3β kinase activity (Ser/Thr 09 peptide Z-lyte FRET assay). In kind it is biochemical. The conditions noted are these: recombinant kinase, 46 μM ATP, one hour at room temperature; read-out: EC50.
The test system of experiment [1] is SW480 colon carcinoma cells. In words: Cell viability assay (CellTiter-Glo). The conditions noted are these: for inhibition at 10 µM: SW480, read-out: percent inhibition at 10 μM. (ATP-based viability assays read luminescence as a measure of living cells.)
Procedure: Representative compounds were screened using the assay procedure to assess the effect on cell viability as described below.
SW480 colon carcinoma cells were transduced with a lentiviral vector expressing luciferase with a human Sp5 promoter consisting of a sequence of eight TCF/LEF binding sites. […] These stably transduced SW480 cells were expanded in cell culture and used for all further screening activities. Each compound was dissolved in DMSO as a 10 mM stock and used to prepare compound source plates.
For the Cell Viability Assays, the cells were plated at 2,000 cells/well in 384-well plates with a DMEM medium containing 1% fetal bovine serum, and 1% Penicillin-Streptomycin and incubated for four days hours at 37° C. and 5% CO2. Eight replicates of DMSO-treated cells served as controls and cells treated with compound were performed in duplicate.
After incubation, 10 μL of CellTiter-Glo (Promega) was added to each well allowed to incubate for approximately 12 minutes. This reagent “results in cell lysis and generation of a luminescent signal proportional to the amount of ATP present. The amount of ATP is directly proportional to the number of cells present in culture, in agreement with previous reports. The CellTiter-Glo Assay generates a “glow-type” luminescent signal, produced by the luciferase reaction (Promega.com)”.
Dose-response curves were generated and EC50 concentration values were calculated using non-linear regression curve fit in the GraphPad Prism (San Diego, Calif.) or Dotmatics' Studies Software (Bishops Stortford, UK).
For experiment [2], the system named is Wnt-responsive Sp5-Luc reporter in SW480 colon carcinoma cells. Description: Screening assay for Wnt activity (Sp5-Luc reporter gene assay). As to conditions: for inhibition at 10 µM: SW480, read-out: percent inhibition at 10 μM.
The subject of another experiment is IL-6. In words: IL-6 inhibition in LPS-stimulated human peripheral blood mononuclear cells (HTRF). The conditions noted are these: for inhibition at 10 µM: read-out: percentage in parentheses after EC50 >10. Background: In TR-FRET formats the signal depends on donor and acceptor labels being close together.
The test system of experiment [3] is α-smooth muscle actin (aSMA) positive LL29 cells. Description: Inhibition of the fibrotic process: αSMA staining in TGF-β1 treated LL29 fibroblasts from IPF patients. The conditions noted are these: for inhibition at 10 µM: read-out: percentage in parentheses after EC50 >10.

The term EC50 denotes the concentration needed to bring the measured effect to its halfway point.

Chain of GSK3β kinase (P49841 whole entry): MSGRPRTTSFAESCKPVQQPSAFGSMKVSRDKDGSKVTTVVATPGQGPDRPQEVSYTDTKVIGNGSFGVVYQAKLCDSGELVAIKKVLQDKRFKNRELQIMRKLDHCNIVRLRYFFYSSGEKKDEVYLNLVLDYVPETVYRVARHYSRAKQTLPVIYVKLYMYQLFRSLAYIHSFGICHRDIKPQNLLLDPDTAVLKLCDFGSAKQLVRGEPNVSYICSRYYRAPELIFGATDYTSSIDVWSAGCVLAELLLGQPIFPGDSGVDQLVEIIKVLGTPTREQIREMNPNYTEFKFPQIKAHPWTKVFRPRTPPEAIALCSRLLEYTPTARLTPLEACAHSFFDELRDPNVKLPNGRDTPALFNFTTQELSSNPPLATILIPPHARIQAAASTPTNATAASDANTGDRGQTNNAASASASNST

Take `CN1CCC(c2nc(C(=O)Nc3cc4nc(-c5cnn(C)c5)ccc4cn3)co2)CC1` [Compound 242, N-(2-(1-Methyl-1H-pyrazol-4-yl)-1,6-naphthyridin-7-yl)-2-(1-methylpiperidin-4-yl)oxazole-4-carboxamide]: the EC50 at DYRK1A kinase worked out at 0.06 µM; at GSK3β kinase, 6.85 µM; in experiment [1] (Homo sapiens, SW480, 96 h), 0.541 µM; in experiment [2] (Homo sapiens, SW480) it was 0.268 µM; in the experiment on IL-6 (Homo sapiens, PBMC, 22 h) it was 3.62 µM; in experiment [3] (Homo sapiens, Fibroblast, 96 h), 1.42 µM.
In the case of `CCN(CC)CC(=O)Nc1cc2cc(-c3cnn(C)c3CN3CCCCC3)cnc2cn1` [Compound 3003, 2-(Diethylamino)-N-(3-(1-methyl-5-(piperidin-1-ylmethyl)-1H-pyrazol-4-yl)-1,7-naphthyridin-6-yl)acetamide], the EC50 on DYRK1A kinase was 0.067 µM; on GSK3β kinase, 1.52 µM; in experiment [1] (Homo sapiens, SW480, 96 h) it was more than 10 µM; in experiment [2] (Homo sapiens, SW480), more than 10 µM; in the experiment with IL-6 (Homo sapiens, PBMC, 22 h), more than 10 µM; in experiment [3] (Homo sapiens, Fibroblast, 96 h) it was more than 10 µM. Also, the inhibition at 10 µM in experiment [1] (Homo sapiens) was determined as 35.9%; in experiment [2] (Homo sapiens) it was 33.5%; in the experiment on IL-6 (Homo sapiens, PBMC), 7.3%; in experiment [3] (Homo sapiens, Fibroblast) it was 27.8%.
As to `Cc1nnc(-c2cnc3cnc(NC(=O)c4ccnc(N5CCN(C)CC5)c4)cc3c2)s1` [Compound 3470, N-(3-(5-Methyl-1,3,4-thiadiazol-2-yl)-1,7-naphthyridin-6-yl)-2-(4-methylpiperazin-1-yl)isonicotinamide], the EC50 on DYRK1A kinase is 0.11 µM; at GSK3β kinase, more than 10 µM; in experiment [1] (Homo sapiens, SW480, 96 h), 3.96 µM; in experiment [2] (Homo sapiens, SW480) it was 5.48 µM; in the experiment with IL-6 (Homo sapiens, PBMC, 22 h) it was more than 10 µM; in experiment [3] (Homo sapiens, Fibroblast, 96 h), 3.23 µM. Moreover, in the experiment with IL-6 (Homo sapiens, PBMC), the inhibition at 10 µM was determined as 9.4%.
Consider `CC(C(=O)Nc1cc2cc(-c3cnn(C)c3)cnc2cn1)N1CCCCC1` (centres unmarked) [Compound 2791, N-(3-(1-Methyl-1H-pyrazol-4-yl)-1,7-naphthyridin-6-yl)-2-(piperidin-1-yl) propanamide], for which the EC50 on DYRK1A kinase was 0.513 µM; at GSK3β kinase, 3.47 µM; in experiment [1] (Homo sapiens, SW480, 96 h), more than 10 µM; in experiment [2] (Homo sapiens, SW480), more than 10 µM; in the experiment with IL-6 (Homo sapiens, PBMC, 22 h), more than 10 µM; in experiment [3] (Homo sapiens, Fibroblast, 96 h) it was 6.13 µM. The inhibition at 10 µM in experiment [1] (Homo sapiens) was determined as 24.8%; in experiment [2] (Homo sapiens), 10.5%; in the experiment on IL-6 (Homo sapiens, PBMC) it was 5.3%.
Turning to `O=C(Nc1cc2nc(-c3cncc(OCC4CNC4)n3)ccc2cn1)c1ccc(F)cc1` [Compound 892, N-(2-(6-(Azetidin-3-ylmethoxy)pyrazin-2-yl)-1,6-naphthyridin-7-yl)-4-fluorobenzamide], the EC50 on DYRK1A kinase was 0.142 µM; on GSK3β kinase, more than 10 µM; in experiment [1] (Homo sapiens, SW480, 96 h), 2.06 µM; in experiment [2] (Homo sapiens, SW480) it was 4.28 µM; in the experiment on IL-6 (Homo sapiens, PBMC, 22 h), more than 10 µM; in experiment [3] (Homo sapiens, Fibroblast, 96 h) it was 3.98 µM. Besides, the inhibition at 10 µM with IL-6 (Homo sapiens, PBMC) was 2.5%.
`CC(C)Nc1cncc(-c2ccc3cnc(NC(=O)c4cn(C5CCN(CCF)CC5)nn4)cc3n2)n1` [Compound 863, 1-(1-(2-fluoroethyl)piperidin-4-yl)-N-(2-(6-(isopropylamino)pyrazin-2-yl)-1,6-naphthyridin-7-yl)-1H-1,2,3-triazole-4-carboxamide]: the EC50 on DYRK1A kinase is 0.388 µM; on GSK3β kinase, more than 10 µM; in experiment [1] (Homo sapiens, SW480, 96 h), more than 10 µM; in experiment [2] (Homo sapiens, SW480), more than 10 µM; with IL-6 (Homo sapiens, PBMC, 22 h), more than 10 µM; in experiment [3] (Homo sapiens, Fibroblast, 96 h) it was more than 10 µM. Also, the inhibition at 10 µM came out at 27.5% in experiment [1] (Homo sapiens); 29.7% in experiment [2] (Homo sapiens); 7% in the experiment with IL-6 (Homo sapiens, PBMC); 41% in experiment [3] (Homo sapiens, Fibroblast).
Consider `CC(C)Oc1ccc(C(=O)Nc2ncc3ccc(-c4cnc5n4CCN(C)C5)cc3n2)cc1` [Compound 4577, 4-Isopropoxy-N-(7-(7-methyl-5,6,7,8-tetrahydroimidazo[1,2-a]pyrazin-3-yl)quinazolin-2-yl)benzamide], for which the EC50 on DYRK1A kinase was 0.175 µM; on GSK3β kinase, more than 10 µM; in experiment [1] (Homo sapiens, SW480, 96 h), more than 10 µM; in experiment [2] (Homo sapiens, SW480), more than 10 µM; with IL-6 (Homo sapiens, PBMC, 22 h), more than 10 µM; in experiment [3] (Homo sapiens, Fibroblast, 96 h), more than 10 µM. Besides, the inhibition at 10 µM stood at 19.7% in experiment [1] (Homo sapiens); 28.9% in experiment [2] (Homo sapiens); 2.6% in the experiment on IL-6 (Homo sapiens, PBMC); 42.7% in experiment [3] (Homo sapiens, Fibroblast).
For `CC(C(=O)Nc1cc2cc(-c3cncn3C)cnc2cn1)N1CCCC1` (centres unmarked) [Compound 3134, N-(3-(1-Methyl-1H-imidazol-5-yl)-1,7-naphthyridin-6-yl)-2-(pyrrolidin-1-yl) propanamide], the EC50 was 2 µM at DYRK1A kinase; 2.59 µM on GSK3β kinase; more than 10 µM in experiment [1] (Homo sapiens, SW480, 96 h); more than 10 µM in experiment [2] (Homo sapiens, SW480); more than 10 µM in the experiment on IL-6 (Homo sapiens, PBMC, 22 h); more than 10 µM in experiment [3] (Homo sapiens, Fibroblast, 96 h). The inhibition at 10 µM in experiment [1] (Homo sapiens) is 23.8%; in experiment [2] (Homo sapiens), 10.2%; in the experiment with IL-6 (Homo sapiens, PBMC) it was 3.9%; in experiment [3] (Homo sapiens, Fibroblast), 19.7%.
For the compound `Cn1cc(-c2ccc3cnc(NC(=O)C4CCN(CC5(C)COC5)CC4)nc3c2)nn1` [Compound 1254, N-(7-(1-Methyl-1H-1,2,3-triazol-4-yl)quinazolin-2-yl)-1-((3-methyloxetan-3-yl)methyl)piperidine-4-carboxamide], the EC50 at DYRK1A kinase was 0.104 µM; at GSK3β kinase, 0.069 µM; in experiment [1] (Homo sapiens, SW480, 96 h), more than 10 µM; in experiment [2] (Homo sapiens, SW480), more than 10 µM; in the experiment on IL-6 (Homo sapiens, PBMC, 22 h) it was more than 10 µM; in experiment [3] (Homo sapiens, Fibroblast, 96 h), 6.97 µM. The inhibition at 10 µM worked out at 11.2% in experiment [1] (Homo sapiens); 31.7% in experiment [2] (Homo sapiens); 3.8% in the experiment on IL-6 (Homo sapiens, PBMC).
Consider `CN1CCCN(c2cc(C(=O)Nc3cc4cc(-c5cn(C)nn5)cnc4cn3)ccn2)CC1` [Compound 3099, 2-(4-Methyl-1,4-diazepan-1-yl)-N-(3-(1-methyl-1H-1,2,3-triazol-4-yl)-1,7-naphthyridin-6-yl)isonicotinamide], for which the EC50 on DYRK1A kinase is 0.154 µM; on GSK3β kinase it was more than 10 µM; in experiment [1] (Homo sapiens, SW480, 96 h) it was more than 10 µM; in experiment [2] (Homo sapiens, SW480), 0.696 µM; with IL-6 (Homo sapiens, PBMC, 22 h), more than 10 µM; in experiment [3] (Homo sapiens, Fibroblast, 96 h), more than 10 µM. The inhibition at 10 µM in experiment [1] (Homo sapiens) was found to be 29.6%; in the experiment with IL-6 (Homo sapiens, PBMC), 0%; in experiment [3] (Homo sapiens, Fibroblast) it was 44.4%.
In the case of `Cc1ncc(-c2ccc3cnc(NC(=O)[C@H]4C[C@H](N5CCOCC5)C4)nc3c2)o1` [Compound 1462, trans-N-(7-(2-Methyloxazol-5-yl)quinazolin-2-yl)-3-morpholinocyclobutane-1-carboxamide], the EC50 on DYRK1A kinase is 0.37 µM; at GSK3β kinase it was 0.707 µM; in experiment [1] (Homo sapiens, SW480, 96 h) it was more than 10 µM; in experiment [2] (Homo sapiens, SW480), more than 10 µM; in the experiment on IL-6 (Homo sapiens, PBMC, 22 h), more than 10 µM; in experiment [3] (Homo sapiens, Fibroblast, 96 h) it was more than 10 µM. For the same compound, the inhibition at 10 µM in experiment [1] (Homo sapiens) was 20.9%; in experiment [2] (Homo sapiens), 13.6%; in the experiment with IL-6 (Homo sapiens, PBMC), 0%; in experiment [3] (Homo sapiens, Fibroblast) it was 14.5%.
On to `Cn1cc(-c2ccc3cnc(NC(=O)C(C)(C)F)cc3n2)nn1` [Compound 333], for which the EC50 in experiment [1] (SW480 cells, four days, CellTiter-Glo) was more than 10 µM; in experiment [2] (SW480 Sp5-Luc reporter cells, 36 to 48 hours), 0.504 µM; in the experiment with IL-6 (huPBMCs, LPS 50 ng/mL, 22 hours, curves starting from 10 μM), more than 10 µM; in experiment [3] (LL29 fibroblasts from IPF patients, TGF-β1 20 ng/mL, 4 days, curves from 10 μM to 0.94 nM), more than 10 µM. Besides, in experiment [1] (at 10 μM, given for EC50 of >10 μM, SW480 cell viability), the “percent inhibition at 10 μM” value is 35.6%. For the same compound, the “percentage in parentheses after EC50 >10” value in the experiment on IL-6 (huPBMCs, LPS, given beside >10 μM, meaning not given) was 5.4%; in experiment [3] (LL29 fibroblasts, TGF-β1, given beside >10 μM, meaning not given) it was 25.2%.
